Tested on: Legionella

OCl [sodium hypochlorite]
Legionella test of bath water: detected | Count of the bacteria of the genus Legionella in bath water (start 300 CFU/100 ml, free residual chlorine max 2 mg/l for 2 hours, then 3 days at sodium hypochlorite 0.4 mg/l, 2000 bathers per day): 1300 CFU/100 ml

From patent US20040029758A1 (priority 2000, published 2004)
